Measurements: patent US7618774B2, “Materials and methods for identifying genes and/or agents that alter replicative lifespan” (University of Rochester, priority 2003, dated 2009)
“Also recorded” adds a separate entry of the source.

Legend:
K6001 cells = experiment: DEAD assay for replicative lifespan; format: cell-based, S. cerevisiae
Source text: One yeast strain that can be used in the assays of the present invention is S. cerevisiae strain K6001, which carries two distinct non-native genes (i.e., not contained within a single cassette). This strain was originally developed for the study of mating-type switching (Bobola et al. “Asymmetric Accumulation of Ash1p in Postanaphase Nuclei Depends on a Myosin and Restricts Yeast Mating-Type Switching to Mother Cells,” Cell 84:699-709 (1996), which is hereby incorporated by reference in its entirety). K6001 cells contain two independent copies of CDC6 expressed from either the repressible GAL1or mother-cell specific HO promoters. Cdc6p is an essential protein required for DNA replication. Transcription from the HO promoter in daughter cells is prevented by Ash1p, which is expressed exclusively in daughter cells (Sil, et al., “Identification of Asymmetrically Localized Determinant, Ash1p, Required for Lineage-Specific Transcription of the Yeast HO Gene,” Cell 84:711-22 (1996), which is hereby incorporated by reference in its entirety). When K6001 cells are cultured on galactose, GAL1::CDC6 is expressed in both mother and daughter cells, sustaining the replication of both. However, when the GAL1::CDC6 gene is repressed by glucose, only the mother-specific expression of HO::CDC6 remains to support growth. Given the tight regulation of the GAL1promoter, DNA replication fails and daughter cells arrest after one, or at most a few ectopic cytokineses. As a result, K6001 cultures grow approximately linearly in glucose (daughter cells accumulate and contribute to the optical density of the culture) until the mother cells reach their replicative capacity and cease producing daughter cells. Since Cdc6 is naturally unstable, and the GAL1 promoter is efficiently shut off in glucose, the transition from log growth to linear growth is relatively tight and rapid. […]
The DEAD assay was used to assess the effect of deleting SGS1 on replicative lifespan. […] After 48 hrs at 30° C. the number of daughter cells in each microcolony was counted by microdissection and plotted as a survival curve. […]

Sir2 = Sir2 (Saccharomyces cerevisiae, UniProt P06700); conditions: in vitro; cited from earlier work
Sir2, sequence (P06700 whole entry): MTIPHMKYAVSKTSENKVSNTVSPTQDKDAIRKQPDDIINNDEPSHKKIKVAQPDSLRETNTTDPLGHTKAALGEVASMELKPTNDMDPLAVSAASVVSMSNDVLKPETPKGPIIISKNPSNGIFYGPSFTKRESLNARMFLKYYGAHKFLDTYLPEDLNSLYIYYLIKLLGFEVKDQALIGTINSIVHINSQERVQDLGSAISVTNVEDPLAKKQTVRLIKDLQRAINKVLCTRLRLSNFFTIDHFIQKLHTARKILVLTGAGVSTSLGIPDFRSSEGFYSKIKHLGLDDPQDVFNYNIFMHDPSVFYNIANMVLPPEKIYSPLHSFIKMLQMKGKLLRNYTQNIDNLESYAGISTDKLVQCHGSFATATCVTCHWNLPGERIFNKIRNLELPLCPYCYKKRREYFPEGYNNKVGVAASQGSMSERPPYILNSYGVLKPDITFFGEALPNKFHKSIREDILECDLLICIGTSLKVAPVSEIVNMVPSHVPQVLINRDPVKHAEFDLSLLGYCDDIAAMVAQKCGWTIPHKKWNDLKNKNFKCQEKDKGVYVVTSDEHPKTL

yeast = conditions: literature reports; cited from earlier work
mammalian cells = conditions: literature reports; cited from earlier work

Row | Structure (SMILES) | mean lifespan (replicative) (K6001 cells; K6001 cells cultured in presence or absence of 10 μM resveratrol, FIG. 3) | Sir2 activation (Sir2) | replicative lifespan of yeast (yeast) | lifespan (replicative) (K6001 cells; K6001 cells cultured in 5 μM paraquat versus lower concentration, FIG. 4) | mean lifespan (replicative) (K6001 cells; K6001 cells, paraquat between 0.1 μM to 5.0 μM, FIG. 4) | apoptosis (mammalian cells)
1 | Oc1ccc(C=Cc2cc(O)cc(O)c2)cc1 [resveratrol] | significantly extended the mean lifespan; also recorded: longer mean lifespan | actives Sir2 in vitro | extends the replicative lifespan of yeast | – | – | –
2 | C[n+]1ccc(-c2cc[n+](C)cc2)cc1 [paraquat] | – | – | reduce replicative lifespan in yeast | apparently shorter | decreased in a dose-dependent fashion | induce apoptosis in mammalian cells
